Laboratory results reported in patent US7238512B2, “Method to produce para-hydroxybenzoic acid in the stem tissue of green plants by using a tissue-specific promoter” (E. I. du Pont de Nemours and Company, priority 2003, dated 2007).
Where two headings read alike, the source gives them in different places.

Experiments:
Arabidopsis plants [1] = assay: pHBA analysis in tissue of transgenic plants by acid hydrolysis and HPLC; assay type: in vivo, Arabidopsis thaliana; details: for Whole stalk pHBA highest: best primary transformant; for Whole stalk pHBA highest / Basal stalk pHBA average / Basal stalk pHBA highest: Table 5; for Basal stalk pHBA average / Basal stalk pHBA highest: primary transformants, eight weeks; for Basal stalk pHBA average: 2 cm stem segment at base; for pHBA levels relative to the best 35S HCHL line: whole stalk tissue, best lines
Procedure: If not stated otherwise, plants were grown under standard conditions ([…], 12 h darkness) in a greenhouse. Plants expressing HCHL genes where grown at 100 μE m^−2 sec^−1, 14 h light (23° C.), 12 h (18° C.) darkness and 70% relative humidity in growth chambers (Conviron, USA). Sterile plant cultures were maintained under identical conditions in a plant growth chamber (Percival, USA).
Arabidopsis thaliana plants were transformed using Agrobacterium strains (C58, C1 GV3101 MP90) (Koncz, C. and Schell, J., Mol. Gen. Genet., 204:383-396 (1986)) and published protocols of the in-planta transformation method (Desfeux et al., Plant Physiology, 123(3):895-904 (2000)). Selection for transformants carrying the NPTII gene was conducted on sterile growth media in the presence of 50 mg/L kanamycin. Selection for transformants carrying the BAR gene was conducted on sterile growth media in the presence of 7.5 mg/L glufosinate or by germinating seed in soil followed by spray-application of an aqueous solution (6 mg/L) of glufosinate herbicide (Sigma, USA) 7 days after germination. Plants destined for plant transformation experiments were grown under permanent light at 23° C. to accelerate flower development.
pHBA was quantitated in plant tissue by HPLC analysis. For determination of pHBA conjugates, fresh oven-dried or lyophilized tissue was extracted with 50% MeOH. To quantitate free pHBA plant samples (fresh, dried, lyophilized plant tissue or dried-down methanol extracts of plant tissue) were subjected to acid hydrolysis. Dried or lyophilized tissue was ground to a fine powder using a Cyclotec 1093 tissue mill (Foss Tecator, Sweden) prior to hydrolysis. Tissue (5-25 mg of dried or lyophilized material, 10-100 mg of fresh tissue) was supplemented with 500-750 μL of 1M HCl and incubated at 100° C. for 1-3 h. The hydrolysate was adjusted to alkaline pH by addition of one volume of 1.1 M NaOH.

[2] = system: Pseudomonas fluorescens AN103 HCHL (4-hydroxycinnamoyl-CoA hydratase/lyase); details: published, Mitra et al., Arch. Biochem. Biophys., 365(1):6-10 (1999); cited from earlier work
[3] = system: Pseudomonas putida (DSM 12585) HCHL (4-hydroxycinnamoyl-CoA hydratase/lyase), variant with C-terminal hexa-histidine tag, SEQ ID NO:10; assay: Kinetic properties of the purified his-tagged HCHL enzyme from Pseudomonas putida (DSM 12585); HPLC quantitation of pHBALD / vanillin; details: for Km / Vmax: his-tagged enzyme, 5.5 min; for Km: 100 mM Tris/HCl pH 8.5, 30° C., pHCACoA 343 to 2.7 μM, feruloylCoA 293 to 2.3 μM; for Vmax: pH 8.5, 30° C.
Procedure: A second expression construct was generated that expresses a variant of the HCHL protein that carries a C-terminal hexa-histidine tag.
LB medium (200 mL containing 50 mg/L kanamycin) was inoculated with a single colony of E. coli BL21 DE3 cells harboring the pET29a HCHL 6×His Tag expression construct. Cells were grown to an ODλ=600 nm of 0.6 and protein production was induced by addition of 0.2 mM IPTG. Cells were grown at room temperature for 24 h. Cells were harvested by centrifugation (5000×g for 10 min) and resuspended in 2.5 mL of 100 mM Tris/HCl (pH 8.5), 20 mM DTT, and 300 mM NaCl. The cell suspension was passed twice through a French press and cleared by centrifugation (30000×g, 20 min, at 4° C.). The cell-free extract was buffer-exchanged using PD10 columns into 20 mM NaPO4 (pH 7.5), 500 mM NaCl, and 10 mM imidazole and loaded on a 5 mL HiTrap chelating chromatography cartridge (Amersham Pharmacia, USA). The column was washed with 20 mL of loading buffer and 20 mL of loading buffer containing 70 mM imidazole. The his-tagged HCHL protein was eluted from the column with a linear gradient from 70-1000 mM imidazole in loading buffer.

[4] = HCHL enzyme activity in leaf and stalk tissue of transgenic plants; details: leaf, T2 lines, eight weeks, Table 6
Description: For this experiment the basal stem segment was used.
The primary transformants were self crossed and T2 seed material was germinated on selective media containing glufosinate, transferred to soil, and grown for eight weeks. Leaf and stalk tissue was harvested and subjected to pHBA analysis and assayed for HCHL activity (Table 6).
T2 plants of the Caulobacter and Pseudomonas fluorescens HCHL transgenics were germinated on selective media and grown in soil for 6 weeks to obtain sufficient stalk tissue for analysis of HCHL enzyme activity.

Arabidopsis plants [5] = details: in vivo
[6] = target: T1, Caulobacter crescentus HCHL (4-hydroxycinnamoyl-CoA hydratase/lyase), SEQ ID NO:61 (Caulobacter vibrioides, UniProt Q9A5P6); details: Table 12; 0.8 ng enzyme, pHCACoA 0.9 to 440 μM
T1 sequence (Q9A5P6 1-275): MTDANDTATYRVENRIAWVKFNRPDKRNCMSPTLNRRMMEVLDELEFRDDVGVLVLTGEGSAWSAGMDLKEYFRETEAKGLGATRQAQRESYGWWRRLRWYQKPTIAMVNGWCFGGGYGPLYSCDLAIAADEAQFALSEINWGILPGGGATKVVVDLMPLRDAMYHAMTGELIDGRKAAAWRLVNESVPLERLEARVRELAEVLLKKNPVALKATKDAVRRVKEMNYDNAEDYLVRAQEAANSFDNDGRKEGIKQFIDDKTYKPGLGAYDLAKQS

[7] = system: Pseudomonas putida (DSM 12585) HCHL (4-hydroxycinnamoyl-CoA hydratase/lyase), native, SEQ ID NO:6
Procedure: LB medium (500 mL containing 50 mg/L) kanamycin was inoculated with a single colony of E. coli BL21 DE3 cells harboring the pET HCHL expression construct. Cells were grown to an ODλ=600 nm of 0.6 and protein production was induced by the adding of 0.2 mM IPTG. Cells were grown at room temperature for 24 h. Cells were harvested by centrifugation (5000×g for 10 min) and resuspended in 15 mL of 100 mM Tris/HCl (pH 8.5), 20 mM DTT, and 300 mM NaCl. […] Two 2.5-mL aliquots of the cell-free extract were buffer-exchanged using PD10 columns into 50 mM Tris/HCl (pH 7.6), 10 mM Na2SO3, and 1 mM EDTA. Buffer-exchanged extract (7 mL) was loaded onto a Q-sepharose column (15 mL gel bed volume). […] A fraction with HCHL activity was purified further by chromatography on hydroxyapatide (Biorad Econo-Pac cartridge CHT-II, 1 mL gel bed volume (Biorad, Calif., USA)). Approximately 2.5 mL was buffer-exchanged into (10 mM NaPO4, (pH 6.8) and 10 μM CaCl2).

[8] = HCHL enzyme assay, kinetic properties of purified recombinant HCHL with pHCACoA; assay type: biochemical; details: compared to the Pseudomonas fluorescens AN103 enzyme
Description: The reaction mixture was cleared by centrifugation.

[9] = substrate: CC(C)(COP(=O)(O)OP(=O)(O)OC[C@H]1O[C@@H](n2cnc3c(N)ncnc32)[C@H](O)[C@@H]1OP(=O)(O)O)[C@@H](O)C(=O)NCCC(=O)NCCSC(=O)/C=C/c1ccc(O)cc1; assay: purified protein, by the assay type; details: other: Table 12, 0.8 ng enzyme, pHCACoA 0.9 to 440 μM, pH 8.5, 30° C.
[10] = native enzyme, Example 1, pH 8.5, 30° C.

## 4CL1 HCHL: Arabidopsis 4CL1 promoter fused to P. putida HCHL coding sequence, SEQ ID NO:28
Arabidopsis plants [1]
  Whole stalk pHBA highest: 12.93 (line 183) mg/g DW
  Basal stalk pHBA average: 0.55 mg/g FW
  Basal stalk pHBA highest: 3.87 mg/g FW
  pHBA levels relative to the best 35S HCHL line: 60%

## C3′H HCHL: Arabidopsis C3′H promoter fused to P. putida HCHL coding sequence, SEQ ID NO:29
Arabidopsis plants [1]
  Whole stalk pHBA highest: 9.52 (line 227) mg/g DW
  Basal stalk pHBA average: 0.41 mg/g FW
  Basal stalk pHBA highest: 1.65 mg/g FW

## COc1cc(/C=C/C(=O)SCCNC(=O)CCNC(=O)[C@H](O)C(C)(C)COP(=O)(O)OP(=O)(O)OC[C@H]2O[C@@H](n3cnc4c(N)ncnc43)[C@H](O)[C@@H]2OP(=O)(O)O)ccc1O [feruloylCoA]
[2]
  Km: 2.4 µM
  Vmax: 36.5 nkat/mg
[3]
  Km: 2.39 µM
  Vmax: 37.3 nkat/mg

## AtCesA7 (IRX3) HCHL: Arabidopsis AtCesA7 (IRX3) promoter fused to P. putida HCHL coding sequence, SEQ ID NO:30
[4]
  HCHL activity: no detectable HCHL activity
Arabidopsis plants [1]
  Whole stalk pHBA highest: 12.96 (line 366) mg/g DW
  Basal stalk pHBA average: 1.21 mg/g FW
  Basal stalk pHBA highest: 3.91 mg/g FW
  pHBA levels relative to the best 35S HCHL line: 60%
Arabidopsis plants [5]
  plant phenotype: phenotypically indistinguishable from wild type plants

## CC(C)(COP(=O)(O)OP(=O)(O)OC[C@H]1O[C@@H](n2cnc3c(N)ncnc32)[C@H](O)[C@@H]1OP(=O)(O)O)[C@@H](O)C(=O)NCCC(=O)NCCSC(=O)/C=C/c1ccc(O)cc1 [pHCACoA, para-coumaroyl-CoA]
[6]
  Vmax: 240 nkat mg^−1
[2]
  Km: 5.3 µM
  Vmax: 73 nkat/mg
[7]; Table 12, 1.4 ng enzyme, pHCACoA 0.9 to 440 μM
  Vmax: 43 nkat mg^−1
[7]; Table 12, 1.4 ng enzyme, pHCACoA 0.9 to 440 μM, pH 8.5, 30° C.
  Km: 2.4 µM
[7]; from Vmax with pHCACoA, using 30,865.1 Da per monomer
  catalytic center activity (per enzyme dimer): 2.65 s⁻¹
[7]; [10]
  Km: 2.4 µM
  Vmax: 43 nkat/mg
[3]; from Vmax with pHCACoA, using 32,348.8 Da per monomer
  catalytic center activity (per enzyme dimer): 3.4 s⁻¹
[3]
  Km: 2.53 µM
  Vmax: 53.8 nkat/mg

## C4H HCHL: Arabidopsis C4H promoter fused to P. putida HCHL coding sequence, SEQ ID NO:27
Arabidopsis plants [1]
  Whole stalk pHBA highest: 23.42 (line 35) mg/g DW
  Basal stalk pHBA average: 0.89 mg/g FW
  Basal stalk pHBA highest: 5.54 mg/g FW
  pHBA levels relative to the best 35S HCHL line: 106%

B1: Caulobacter crescentus HCHL (4-hydroxycinnamoyl-CoA hydratase/lyase), SEQ ID NO:61 (Caulobacter vibrioides CB15) (protein)
chain: T1 sequence (Q9A5P6 1-275)
[8]
  improvement of catalytic efficiency (Kcat/Km): 50%
[9]
  Km: 4 µM
